# Measured values published in patent publication EP4506015A1, “COMBINATION OF A MPS1 INHIBITOR AND AN ANTIBODY DRUG CONJUGATE” (Nerviano Medical Sciences S.r.l., priority 2023, dated 2025).
# Test system: LS411N human colorectal cancer cells
# Assay: LS411N colorectal cancer xenograft: tumor growth inhibition, tumor growth delay and tumor regressions
# Format: in vivo, Balb/c-nude female mice
# Conditions: for TGI: Day 18, vs vehicle; for Median Time to 500 mm3: study cut-off Day 67; for Tumor regressions at day 67: animals with regression of n=10 mice/group; for T/C: median time to 500 mm3, treated vs vehicle; for Tumor growth delay: time to 500 mm3 vs vehicle
# Description: LS411N human colorectal cancer cells were maintained in RPMI-1640 cell culture medium supplemented with 10% fetal bovine serum at 37°C in an atmosphere of 5% CO2 in air. The cells in exponential growth phase were harvested and counted. Balb/c-nude female mice were inoculated subcutaneously at the right flank with 5x10^6 LS411N cells in 0.2 ml of PBS mixed with Matrigel (1:1) for tumor development. Six days after cell injection, animals having a tumor volume of about 200 mm^3 were randomized and allocated to 9 experimental groups (n=10 mice/group) for treatment with vehicle, compound of formula (II) at 13 mg/kg, compound of formula (II) at 20 mg/kg, tisotumab vedotin at 1 mg/kg, tisotumab vedotin at 4 mg/kg and the combinations of the two doses of compound of formula (II) with the two doses of tisotumab vedotin. Compound of formula (II) was administered intravenously every 4 days for 7 times (Days 0, 4, 8, 12, 16, 20 and 24) and tisotumab vedotin was administered intravenously once a week for two weeks (Days 0 and 7). On Day 0, tisotumab vedotin was given first and, after 1h, compound of formula (II) was administered).
# Effect of treatment on tumor growth and body weight was evaluated twice times per week. Tumors were measured in two dimensions using a caliper, and the tumor volume was expressed in mm^3 using the formula: V=(L x W2)/2, where V is tumor volume, L is tumor length (the longest tumor dimension) and W is tumor width (the longest tumor dimension perpendicular to L).
# From Day 18 onwards, some animals in the vehicle treated groups had to be euthanized due to tumors reaching the ethical endpoint (3000 mm^3), therefore tumor growth inhibition (TGI) for each treatment group was calculated on Day 18, when all the animals in the vehicle group were available for the calculation of the mean tumor volume.
# Figure 2 and Figure 3a and Figure 3b show the tumor growth curves of individual animals in each group and the Kaplan-Meier curves representing the time needed for tumors to reach/exceed 500 mm^3, respectively. Study cut-off Day 67.
# To better evaluate the combination benefit, tumor growth delay was evaluated as the time needed for tumors to reach/exceed a defined tumor volume (Table 2). The median time for tumors to reach 500 mm^3 was 7 days, 11 days, 14 days, 28 days and 37 days for vehicle, Compound of formula (II) 13 mg/kg, Compound of formula (II) 20 mg/kg, tisotumab vedotin 1 mg/kg and tisotumab vedotin 4 mg/kg single agent groups, respectively. All the combinations induced a strong tumor growth delay when compared to vehicle and single agent treated arms. The median time for tumors to reach 500 mm^3 in the combination at the lower doses of both agents, Compound of formula (II) 13 mg + tisotumab vedotin 1 mg/kg, was 65 days. For the other combination groups the median time for tumors to reach 500 mm^3 had not yet been reached at Day 67. The effect of the combination on tumor growth delay was more than additive for all the combination groups.
# [1] = Compound of formula (II) 13 mg/kg iv every 4 days x7
# [2] = Compound of formula (II) 13 mg/kg
# [3] = Compound of formula (II) 20 mg/kg iv every 4 days x7
# [4] = Compound of formula (II) 20 mg/kg
# [5] = tisotumab vedotin 1 mg/kg iv Days 0 and 7
# [6] = tisotumab vedotin 4 mg/kg iv Days 0 and 7
compound,measurement,setting,value
"CCc1cccc(CC)c1NC(=O)c1nn(C)c2c1CCc1cnc(Nc3ccc(N4CCC(N(C)C)CC4)cc3OC)nc1-2 [Compound of formula (II), N-(2,6-diethylphenyl)-8-({4-[4-(dimethylamino)piperidin-1-yl]-2-methoxyphenyl}-amino)-1-methyl-4,5-dihydro-1H-pyrazolo[4,3-h]quinazoline-3-carboxamide]",Mean Tumor Volume (mm^3) Day 18,[1],751 mm^3
same,TGI,"Compound of formula (II) 13 mg/kg iv every 4 days x7, 13 mg/kg",46.4%
same,Median Time to 500 mm3,[1],11 days
same,Tumor regressions at day 67,[2],0/10
same,T/C,[2],157%
same,Tumor growth delay,[2],4 days
same,Mean Tumor Volume (mm^3) Day 18,[3],655 mm^3
same,TGI,"Compound of formula (II) 20 mg/kg iv every 4 days x7, 20 mg/kg",52.6%
same,Median Time to 500 mm3,[3],14 days
same,Tumor regressions at day 67,[4],0/10
same,T/C,[4],200%
same,Tumor growth delay,[4],7 days
Tisotumab vedotin,control of tumor growth (individual tumor growth curves),[5],"controlled tumor growth initially, but between Days 14 and 20 all tumors started growing"
same,Mean Tumor Volume (mm^3) Day 18,[5],325 mm^3
same,TGI,[5],76.8%
same,Median Time to 500 mm3,[5],28 days
same,Tumor regressions at day 67,tisotumab vedotin 1 mg/kg,0/10
same,T/C,tisotumab vedotin 1 mg/kg,400%
same,Tumor growth delay,tisotumab vedotin 1 mg/kg,21 days
same,control of tumor growth (individual tumor growth curves),[6],"controlled tumor growth and induced tumor regressions initially, but after Day 20 tumors started to regrow as well"
same,Mean Tumor Volume (mm^3) Day 18,[6],147 mm^3
same,TGI,[6],89.5%
same,Median Time to 500 mm3,[6],37 days
same,Tumor regressions at day 67,tisotumab vedotin 4 mg/kg,0/10
same,T/C,tisotumab vedotin 4 mg/kg,529%
same,Tumor growth delay,tisotumab vedotin 4 mg/kg,30 days
